Assay [1] addresses T1, Arabidopsis HPPD (SEQ ID NO:53) (Arabidopsis thaliana, UniProt P93836).
T1 construct: His6 (N); made in house; host or cells: E. coli BL21 (DE3)
T1 sequence (P93836 1-445): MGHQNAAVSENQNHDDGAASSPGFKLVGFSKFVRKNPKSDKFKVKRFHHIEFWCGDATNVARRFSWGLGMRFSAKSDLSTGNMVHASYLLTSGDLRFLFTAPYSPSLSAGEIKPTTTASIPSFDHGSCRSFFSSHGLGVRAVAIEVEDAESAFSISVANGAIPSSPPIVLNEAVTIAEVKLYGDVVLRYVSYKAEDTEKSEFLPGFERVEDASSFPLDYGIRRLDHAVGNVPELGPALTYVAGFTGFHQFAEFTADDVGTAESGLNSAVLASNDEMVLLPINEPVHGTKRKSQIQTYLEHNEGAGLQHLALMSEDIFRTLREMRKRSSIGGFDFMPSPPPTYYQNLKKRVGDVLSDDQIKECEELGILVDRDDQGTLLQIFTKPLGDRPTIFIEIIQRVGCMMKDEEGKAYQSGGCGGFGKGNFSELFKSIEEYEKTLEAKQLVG
The experiment in a line: HPPD activity assay (HPLC of homogentisic acid). As to conditions: Arabidopsis HPPD. In kind it is biochemical. Here is the method:
(§1) The activity assay for HPPD is based on the analysis of homogentisic acid by reversed phase HPLC.
(§2) The assay mixture can contain 150 mM potassium phosphate buffer pH 7.0, 50 mM L-ascorbic acid, 100 μM Catalase (Sigma-Aldrich), 1 μM FeSO4 and 0.2 units of purified HPPD enzyme in a total volume of 505 μl. 1 unit is defined as the amount of enzyme that is required to produce 1 nmol of HGA per minute at 20° C.
(§3) The reaction is allowed to proceed for 45 min at room temperature. The reaction is stopped by the addition of 50 μl of 4.5 M phosphoric acid. The sample is filtered using a […] pore size PVDF filtration device. 5 μl of the cleared sample is analyzed on an UPLC HSS T3 column (particle size 1.8 μm, dimensions 2, 1×50 mm; Waters) by isocratic elution using 90% 20 mM NaH2PO4 pH 2.2, 10% methanol (v/v).
(§4) HGA is detected electrochemically at 750 mV (mode: DC; polarity: positive) and quantified by integrating peak areas (Empower software; Waters).
(§5) Inhibitors are dissolved in DMSO (dimethylsulfoxide) to a concentration of 0.5 mM. From this stock solution serial five-fold dilutions are prepared in DMSO, which are used in the assay. The respective inhibitor solution accounts for 1% of the assay volume. Thus, final inhibitor concentrations range from 5 μM to 320 pM, respectively. Activities are normalized by setting the uninhibited enzyme activity to 100%. IC50 values are calculated using non-linear regression.
(§6) Using methods which are described in the above examples or well known in the art, purified recombinant wild-type HPPD enzymes are characterized with respect to their kinetic properties and sensitivity towards HPPD inhibiting herbicides. Apparent michaelis constants (Km) and maximal reaction velocities (Vmax) are calculated by non-linear regression with the software GraphPad Prism 5 (GraphPad Software, La Jolla, USA) using a substrate inhibition model. […] Weighted means (by standard error) of Km and IC50 values are calculated from at least three independent experiments. The Cheng-Prusoff equation for competitive inhibition (Cheng, Y. C.; Prusoff, W. H. Biochem Pharmacol 1973, 22, 3099-3108) is used to calculate dissociation constants (Ki).
(§7) Field performance of the HPPD enzyme, which is used as a herbicide tolerance trait may depend not only on its lack of sensitivity towards HPPD inhibiting herbicides but also on its activity. To assess the potential performance of a herbicide tolerance trait a tolerance index (TI) is calculated using the following formula: […]
(§8) Easy comparison and ranking of each trait is enabled by normalizing tolerance indexes on Arabidopsis wild-type HPPD.

The target in assay [2] is T2, Hordeum HPPD (SEQ ID NO:2) (Hordeum vulgare, UniProt O48604, A164G/R146V/R147D/R148G).
T2 construct: His-tag (N); made in house; host or cells: E. coli BL21 (DE3)
The experiment in a line: HPPD activity assay. As to conditions: Hordeum HPPD. The format is biochemical. Here is the method: as §1, §2, §3, §4, §5, §6, §7, §8

[3] abbreviates: turnover number, substrate 4-HPP.
The mark [4] stands for this setting: read-out: Km [μM] (4-HPP), apparent michaelis constant.

T2 sequence (O48604 whole entry R146V/R147D/R148G/A164G): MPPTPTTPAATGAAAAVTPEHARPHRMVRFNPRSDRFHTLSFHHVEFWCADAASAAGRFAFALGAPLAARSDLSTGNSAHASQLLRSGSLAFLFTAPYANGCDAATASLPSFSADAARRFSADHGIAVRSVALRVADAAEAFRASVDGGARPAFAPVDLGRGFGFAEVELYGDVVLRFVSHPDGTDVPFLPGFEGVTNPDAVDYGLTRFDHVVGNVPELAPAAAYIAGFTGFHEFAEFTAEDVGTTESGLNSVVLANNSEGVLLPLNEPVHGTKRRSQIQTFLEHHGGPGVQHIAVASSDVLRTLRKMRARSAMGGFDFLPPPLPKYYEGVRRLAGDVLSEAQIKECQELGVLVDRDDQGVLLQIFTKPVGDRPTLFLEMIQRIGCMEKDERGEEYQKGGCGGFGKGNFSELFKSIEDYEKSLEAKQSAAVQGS

As to `O=C(O)C(=O)Cc1ccc(O)cc1` [Inhibitor 4-HPP, 4-hydroxyphenylpyruvate], the “kcat” value in assay [1] (setting [3]) came out at 12.9 s⁻¹; in assay [2] (setting [3]) it was 11.5 s⁻¹. In addition, the Km came out at 13 µM in assay [1] (setting [4]) and 26 µM in assay [2] (setting [4]).

The kcat is the number of substrate molecules converted per active site and unit of time at saturation. The Km is the concentration of substrate that gives half-maximal velocity.

The record behind these values is US12065654B2, “Plants having increased tolerance to herbicides” (BASF SE, priority 2014, dated 2024).
